In patent US20260334439A1, “BCAT2 INHIBITORS” (Agios Pharmaceuticals, Inc., priority 2023, published 2026):

How the values were obtained:
[1] = target: T1, BCAT2 (Homo sapiens, UniProt O15382); assay: BCAT2 in vitro enzyme inhibition assay (hBCAT2, glutamate dehydrogenase/diaphorase/resazurin coupled fluorescence read); type: biochemical; settings: hBCAT2, 1 h preincubation at 25° C., one hour reaction; average where tested multiple times
T1 sequence (O15382 28-392): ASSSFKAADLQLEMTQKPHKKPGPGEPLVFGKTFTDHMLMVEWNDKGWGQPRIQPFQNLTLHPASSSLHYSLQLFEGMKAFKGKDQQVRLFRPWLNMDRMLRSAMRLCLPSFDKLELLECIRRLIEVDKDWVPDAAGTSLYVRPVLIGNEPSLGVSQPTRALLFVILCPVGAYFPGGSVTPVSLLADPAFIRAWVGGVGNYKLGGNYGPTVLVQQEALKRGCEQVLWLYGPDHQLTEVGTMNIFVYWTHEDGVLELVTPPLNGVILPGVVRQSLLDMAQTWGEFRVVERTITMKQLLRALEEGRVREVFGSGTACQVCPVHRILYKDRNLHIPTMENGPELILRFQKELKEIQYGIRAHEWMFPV
Method in brief: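 hBCAT2 (0.33 μg/mL in mix) preincubated 1 h at 25 °C with compound (top 100 μM, 3-fold, 10 points) in Tris pH 8.0/NaCl/BSA; substrate mix added (L-leucine, α-ketoglutarate, GDH, NAD, diaphorase, resazurin), quenched with SDS after 1 h, fluorescence Ex 540/Em 590; duplicates, repeat tests averaged.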

[2] = target: T1, BCAT2; assay: BCAT2 cell inhibition using engineered A549 cells (MUT KO, BCAT1 KO; 13C6-KMV formation by LC-MS/MS); type: cell-based; parameters: expressed endogenous BCAT2; endogenous in cells; host or cells: A549 cells, MUT knockout and BCAT1 knockout
Method in brief: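 Medium 13C6-KMV formation is read by LC-MS/MS after PFBHA derivatization with d8-KMV internal standard. Cells are CRISPR MUT/BCAT1 double-knockout A549 expressing endogenous BCAT2, given compound 15 min before labelled isoleucine (800 uM, added 1:1) for 24 h. CTG viability run in parallel; replicates averaged.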

IC50 [1] [nM] | IC50 [2] [nM] | Compound
< 100 | < 100 | O=C1c2cc(Cl)ccc2CN1[C@H]1CCC[C@@H](n2c(-c3ccccc3OCCO)nc3cnc(-c4nc[nH]n4)cc32)C1 [Example 172, 6-chloro-2-((1S,3R)-3-(2-(2-(2-hydroxyethoxy)phenyl)-6-(1H-1,2,4-triazol-3-yl)-1H-imidazo[4,5-c]pyridin-1-yl)cyclohexyl)isoindolin-1-one]
< 100 | < 100 | O=C1c2cc(F)ccc2CN1[C@H]1CCC[C@@H](n2c(-c3ccccc3OCCO)nc3cnc(-c4nc[nH]n4)cc32)C1 [Example 173, 6-fluoro-2-((1S,3R)-3-(2-(2-(2-hydroxyethoxy)phenyl)-6-(1H-1,2,4-triazol-3-yl)-1H-imidazo[4,5-c]pyridin-1-yl)cyclohexyl)isoindolin-1-one]
< 100 | < 100 | O=C1c2ccccc2CN1[C@H]1CCC[C@@H](n2c(-c3ccccc3F)nc3cnc(-c4nc[nH]n4)cc32)C1 [Example 174, 2-((1S,3R)-3-(2-(2-fluorophenyl)-6-(1H-1,2,4-triazol-3-yl)-1H-imidazo[4,5-c]pyridin-1-yl)cyclohexyl)isoindolin-1-one]
< 100 | < 100 | O=C1c2c(F)cccc2CN1[C@H]1CCC[C@@H](n2c(-c3ccccc3F)nc3cnc(-c4nc[nH]n4)cc32)C1 [Example 175, 7-fluoro-2-((1S,3R)-3-(2-(2-fluorophenyl)-6-(1H-1,2,4-triazol-3-yl)-1H-imidazo[4,5-c]pyridin-1-yl)cyclohexyl)isoindolin-1-one]
< 100 | 100 to 500 | O=C1c2ccc(F)cc2CN1[C@H]1CCC[C@@H](n2c(-c3ccccc3F)nc3cnc(-c4nc[nH]n4)cc32)C1 [Example 176, 5-fluoro-2-((1S,3R)-3-(2-(2-fluorophenyl)-6-(1H-1,2,4-triazol-3-yl)-1H-imidazo[4,5-c]pyridin-1-yl)cyclohexyl)isoindolin-1-one]
< 100 | 100 to 500 | O=C1c2cccc(F)c2CN1[C@H]1CCC[C@@H](n2c(-c3ccccc3F)nc3cnc(-c4nc[nH]n4)cc32)C1 [Example 177, 4-fluoro-2-((1S,3R)-3-(2-(2-fluorophenyl)-6-(1H-1,2,4-triazol-3-yl)-1H-imidazo[4,5-c]pyridin-1-yl)cyclohexyl)isoindolin-1-one]
< 100 | < 100 | O=C1c2c(ccc(F)c2F)CN1[C@H]1CCC[C@@H](n2c(-c3ccccc3F)nc3cnc(-c4nc[nH]n4)cc32)C1 [Example 178, 6,7-difluoro-2-((1S,3R)-3-(2-(2-fluorophenyl)-6-(1H-1,2,4-triazol-3-yl)-1H-imidazo[4,5-c]pyridin-1-yl)cyclohexyl)isoindolin-1-one]
< 100 | < 100 | O=C1c2cc(F)ccc2CN1[C@H]1CCC[C@@H](n2c(-c3c(O)cccc3F)nc3cnc(-c4nc[nH]n4)cc32)C1 [Example 179, 6-fluoro-2-((1S,3R)-3-(2-(2-fluoro-6-hydroxyphenyl)-6-(1H-1,2,4-triazol-3-yl)-1H-imidazo[4,5-c]pyridin-1-yl)cyclohexyl)isoindolin-1-one]
< 100 | < 100 | Cc1coc(-c2cc3c(cn2)nc(-c2ccccc2OCCO)n3[C@@H]2CCC[C@H](N3Cc4ccc(F)cc4C3=O)C2)n1 [Example 181, 6-fluoro-2-((1S,3R)-3-(2-(2-(2-hydroxyethoxy)phenyl)-6-(4-methyloxazol-2-yl)-1H-imidazo[4,5-c]pyridin-1-yl)cyclohexyl)isoindolin-1-one]
< 100 | < 100 | O=C1c2ccc(F)cc2C(=O)N1[C@H]1CCC[C@@H](n2c(-c3ccccc3F)nc3cnc(-c4nc[nH]n4)cc32)C1 [Example 182, 5-fluoro-2-((1S,3R)-3-(2-(2-fluorophenyl)-6-(1H-1,2,4-triazol-3-yl)-1H-imidazo[4,5-c]pyridin-1-yl)cyclohexyl)isoindoline-1,3-dione]
< 100 | < 100 | O=C1c2cc(Cl)ccc2CN1[C@H]1CCC[C@@H](n2c(-c3ccccc3F)nc3cnc(-c4nc[nH]n4)cc32)[C@@H]1O [Example 183, 6-chloro-2-((1S,2S,3R)-3-(2-(2-fluorophenyl)-6-(1H-1,2,4-triazol-3-yl)-1H-imidazo[4,5-c]pyridin-1-yl)-2-hydroxycyclohexyl)isoindolin-1-one]
< 100 | < 100 | O=C1c2cc(F)ccc2CN1[C@H]1CCC[C@@H](n2c(-c3ccccc3F)nc3cnc(-c4nc[nH]n4)cc32)[C@@H]1O [Example 184, 6-fluoro-2-((1S,2S,3R)-3-(2-(2-fluorophenyl)-6-(1H-1,2,4-triazol-3-yl)-1H-imidazo[4,5-c]pyridin-1-yl)-2-hydroxycyclohexyl)isoindolin-1-one]
< 100 | < 100 | O=C1c2cc(F)ccc2CN1[C@H]1CCC[C@@H](n2c(-c3ccccc3F)nc3cnc(-n4nccn4)cc32)[C@@H]1O [Example 185, 6-fluoro-2-((1S,2S,3R)-3-(2-(2-fluorophenyl)-6-(2H-1,2,3-triazol-2-yl)-1H-imidazo[4,5-c]pyridin-1-yl)-2-hydroxycyclohexyl)isoindolin-1-one]
< 100 | < 100 | O=C1c2cc(F)ccc2CN1[C@H]1CCC[C@@H](n2c(-c3c(F)cccc3F)nc3cnc(-n4nccn4)cc32)[C@@H]1O [Example 186, 2-((1S,2S,3R)-3-(2-(2,6-difluorophenyl)-6-(2H-1,2,3-triazol-2-yl)-1H-imidazo[4,5-c]pyridin-1-yl)-2-hydroxycyclohexyl)-6-fluoroisoindolin-1-one]
< 100 | 100 to 500 | O=C1c2cc(F)ccc2CN1[C@H]1CCC[C@@H](n2c(-c3c(F)cccc3F)nc3cnc(-c4ncccn4)cc32)[C@@H]1O [Example 187, 2-((1S,2S,3R)-3-(2-(2,6-difluorophenyl)-6-(pyrimidin-2-yl)-1H-imidazo[4,5-c]pyridin-1-yl)-2-hydroxycyclohexyl)-6-fluoroisoindolin-1-one]
< 100 | 100 to 500 | CO[C@H]1C[C@H](N2Cc3ccc(F)cc3C2=O)C[C@H](n2c(-c3c(O)cccc3F)nc3cnc(-c4nc[nH]n4)cc32)C1 [Example 192, 6-fluoro-2-((1R,3S,5R)-3-(2-(2-fluoro-6-hydroxyphenyl)-6-(1H-1,2,4-triazol-3-yl)-1H-imidazo[4,5-c]pyridin-1-yl)-5-methoxycyclohexyl)isoindolin-1-one]
< 100 | < 100 | CO[C@H]1C[C@H](N2Cc3ccc(F)cc3C2=O)C[C@H](n2c(-c3ccccc3OCCO)nc3ccc(-c4ncccn4)cc32)C1 [Example 194, 6-fluoro-2-((1R,3S,5R)-3-(2-(2-(2-hydroxyethoxy)phenyl)-6-(pyrimidin-2-yl)-1H-benzo[d]imidazol-1-yl)-5-methoxycyclohexyl)isoindolin-1-one]
< 100 | < 100 | CO[C@@H]1C[C@H](N2Cc3ccc(F)cc3C2=O)C[C@H](n2c(-c3ccccc3F)nc3cnc(-c4nc[nH]n4)cc32)C1 [Example 195, 6-fluoro-2-((1R,3S,5S)-3-(2-(2-fluorophenyl)-6-(1H-1,2,4-triazol-3-yl)-1H-imidazo[4,5-c]pyridin-1-yl)-5-methoxycyclohexyl)isoindolin-1-one]
< 100 | < 100 | CC(=O)N1C[C@H](N2Cc3ccc(F)cc3C2=O)C[C@H](n2c(-c3ccccc3F)nc3cnc(-n4nccn4)cc32)C1 [Example 200, 2-((3R,5S)-1-acetyl-5-(2-(2-fluorophenyl)-6-(2H-1,2,3-triazol-2-yl)-1H-imidazo[4,5-c]pyridin-1-yl)piperidin-3-yl)-6-fluoroisoindolin-1-one]
< 100 | < 100 | CC(=O)N1CC(N2Cc3ccc(F)cc3C2=O)CC(n2c(-c3c(F)cccc3F)nc3cnc(-c4nc[nH]n4)cc32)C1 (centres unmarked) [Example 201, 2-(1-acetyl-5-(2-(2,6-difluorophenyl)-6-(1H-1,2,4-triazol-3-yl)-1H-imidazo[4,5-c]pyridin-1-yl)piperidin-3-yl)-6-fluoroisoindolin-1-one]
< 100 | < 100 | O=C1c2cc(Cl)ccc2OCN1[C@H]1CCC[C@@H](n2c(-c3ccccc3F)nc3cnc(-c4nc[nH]n4)cc32)C1 [Example 202, 6-chloro-3-((1S,3R)-3-(2-(2-fluorophenyl)-6-(1H-1,2,4-triazol-3-yl)-1H-imidazo[4,5-c]pyridin-1-yl)cyclohexyl)-2,3-dihydro-4H-benzo[e][1,3]oxazin-4-one]
< 100 | < 100 | O=C1c2cc(F)ccc2OCN1[C@H]1CCC[C@@H](n2c(-c3ccccc3F)nc3cnc(-c4nc[nH]n4)cc32)C1 [Example 204, 6-fluoro-3-((1S,3R)-3-(2-(2-fluorophenyl)-6-(1H-1,2,4-triazol-3-yl)-1H-imidazo[4,5-c]pyridin-1-yl)cyclohexyl)-2,3-dihydro-4H-benzo[e][1,3]oxazin-4-one]
